Results as given in ChEMBL document CHEMBL1129052, “2-[(2-Aminobenzyl)sulfinyl]-1-(2-pyridyl)-1,4,5,6-tetrahydrocyclopent[d]imidazoles as a novel class of gastric H+/K+-ATPase inhibitors” (J Med Chem, 1996).

Experiments:
[1] = molecular target: T1, Potassium-transporting ATPase (Rattus norvegicus) (UniProt P09626+P18598); experiment: Effect in vivo on gastric H+/K+ ATPase activity at 24 hrs following intraduodenal administration of 40 mg/Kg in rats injected intraperitoneally with 1 mg/Kg of cycloheximide; type: functional, organism-based; settings: Stomach
[2] = molecular target: T1, Potassium-transporting ATPase (Rattus norvegicus); experiment: Gastric antisecretory activity was tested in rats at 30 mg/kg, po expressed as the percentage of inhibition against the acid output of the control group; type: functional, organism-based; parameters: dose 30 mg/kg
[3] = molecular target: T1, Potassium-transporting ATPase (Rattus norvegicus); experiment: Effect in vivo on gastric H+/K+ ATPase activity at 10 hrs following intraduodenal administration of 40 mg/Kg in rats; type: functional, organism-based; settings: Stomach
[4] = molecular target: T1, Potassium-transporting ATPase (Rattus norvegicus); experiment: Effect in vivo on gastric H+/K+ ATPase activity at 3 hrs following intraduodenal administration of 40 mg/Kg in rats; type: functional, organism-based; settings: Stomach
[5] = molecular target: T1, Potassium-transporting ATPase (Rattus norvegicus); experiment: Effect in vivo on gastric H+/K+ ATPase activity at 10 hrs following intraduodenal administration of 40 mg/Kg in rats injected intraperitoneally with 1 mg/Kg of cycloheximide; type: functional, organism-based; settings: Stomach
[6] = molecular target: T1, Potassium-transporting ATPase (Rattus norvegicus); experiment: Effect in vivo on gastric H+/K+ ATPase activity at 1.5 hrs following intraduodenal administration of 40 mg/Kg in rats; type: functional, organism-based; settings: Stomach
[7] = molecular target: T1, Potassium-transporting ATPase (Rattus norvegicus); experiment: Effect in vivo on gastric H+/K+ ATPase activity at 6 hrs following intraduodenal administration of 40 mg/Kg in rats; type: functional, organism-based; settings: Stomach
[8] = molecular target: Potassium-transporting ATPase (Sus scrofa, UniProt P19156); experiment: In vitro inhibition against H+/K+ ATPase from porcine gastric mucosal membrane vesicles; type: tissue-based, Gastric mucosa
Potassium-transporting ATPase, sequence (P18434 whole entry): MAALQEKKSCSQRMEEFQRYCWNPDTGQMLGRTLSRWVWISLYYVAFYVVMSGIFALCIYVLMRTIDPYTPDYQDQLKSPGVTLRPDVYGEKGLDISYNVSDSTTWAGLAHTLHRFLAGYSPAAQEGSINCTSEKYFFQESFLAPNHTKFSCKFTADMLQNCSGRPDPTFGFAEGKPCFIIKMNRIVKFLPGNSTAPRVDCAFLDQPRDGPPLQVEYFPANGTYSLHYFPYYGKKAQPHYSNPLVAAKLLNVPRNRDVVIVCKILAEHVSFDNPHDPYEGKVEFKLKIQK
Potassium-transporting ATPase, sequence (P19156 whole entry): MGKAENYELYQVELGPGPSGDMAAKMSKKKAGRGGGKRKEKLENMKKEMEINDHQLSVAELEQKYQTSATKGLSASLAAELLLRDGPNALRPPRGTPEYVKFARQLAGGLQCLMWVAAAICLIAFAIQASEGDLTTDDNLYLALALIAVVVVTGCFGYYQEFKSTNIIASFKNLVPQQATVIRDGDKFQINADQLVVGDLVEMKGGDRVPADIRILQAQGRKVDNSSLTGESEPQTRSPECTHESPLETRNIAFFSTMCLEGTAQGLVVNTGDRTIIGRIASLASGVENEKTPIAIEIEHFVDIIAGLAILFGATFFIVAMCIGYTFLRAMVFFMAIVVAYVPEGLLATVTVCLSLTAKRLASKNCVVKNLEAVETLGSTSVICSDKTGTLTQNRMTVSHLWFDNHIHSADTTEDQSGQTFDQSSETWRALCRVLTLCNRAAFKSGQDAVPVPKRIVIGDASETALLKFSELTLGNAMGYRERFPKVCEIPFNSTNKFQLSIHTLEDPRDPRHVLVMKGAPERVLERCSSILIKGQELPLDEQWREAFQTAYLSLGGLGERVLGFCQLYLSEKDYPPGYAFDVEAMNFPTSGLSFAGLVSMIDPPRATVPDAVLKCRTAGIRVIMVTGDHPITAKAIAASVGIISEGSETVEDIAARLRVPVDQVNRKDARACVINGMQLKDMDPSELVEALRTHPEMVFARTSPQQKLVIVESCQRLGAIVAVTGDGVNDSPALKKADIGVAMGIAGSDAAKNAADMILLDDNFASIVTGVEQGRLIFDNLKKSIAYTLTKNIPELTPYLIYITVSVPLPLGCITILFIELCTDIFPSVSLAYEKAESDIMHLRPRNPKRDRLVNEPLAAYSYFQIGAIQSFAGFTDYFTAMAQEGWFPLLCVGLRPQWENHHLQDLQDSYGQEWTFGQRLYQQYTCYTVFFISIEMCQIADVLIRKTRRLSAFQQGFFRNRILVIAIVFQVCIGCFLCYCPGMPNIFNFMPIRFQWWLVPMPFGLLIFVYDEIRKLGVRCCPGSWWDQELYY

[9] = molecular target: T1, Potassium-transporting ATPase (Rattus norvegicus); experiment: Effect in vivo on gastric H+/K+ ATPase activity at 24 hrs following intraduodenal administration of 40 mg/Kg in rats; type: functional, organism-based; settings: Stomach
[10] = molecular target: T1, Potassium-transporting ATPase (Rattus norvegicus); experiment: Effect in vivo on gastric H+/K+ -ATPase activity at 24 hrs following intraduodenal administration of 40 mg/Kg in rats; type: functional, organism-based; settings: Stomach
[11] = molecular target: T1, Potassium-transporting ATPase (Rattus norvegicus); experiment: Effect in vivo on gastric H+/K+ ATPase activity at 48 hrs following intraduodenal administration of 40 mg/Kg in rats injected intraperitoneally with 1 mg/Kg of cycloheximide; type: functional, organism-based; settings: Stomach
[12] = molecular target: T1, Potassium-transporting ATPase (Rattus norvegicus); experiment: Effect in vivo on gastric H+/K+ -ATPase activity at 6 hrs following intraduodenal administration of 40 mg/Kg in rats; type: functional, organism-based; settings: Stomach
[13] = molecular target: T1, Potassium-transporting ATPase (Rattus norvegicus); experiment: Effect in vivo on gastric H+/K+ -ATPase activity at 48 hrs following intraduodenal administration of 40 mg/Kg in rats; type: functional, organism-based; settings: Stomach
[14] = molecular target: T1, Potassium-transporting ATPase (Rattus norvegicus); experiment: Effect in vivo on gastric H+/K+ -ATPase activity at 3 hrs following intraduodenal administration of 40 mg/Kg in rats; type: functional, organism-based; settings: Stomach

| Control [1] [%] | inhibition [2] [%] | Control [3] [%] | Control [4] [%] | Control [5] [%] | Control [6] [%] | Control [7] [%] | IC50 [8] [µM] | Control [9] [%] | Control [10] [%] | Control [11] [%] | Control [12] [%] | Control [13] [%] | Control [14] [%] | SMILES |
| --- | --- | --- | --- | --- | --- | --- | --- | --- | --- | --- | --- | --- | --- | --- |
| 95.4 | 95 | 79.6 | 46 | 72.9 | 48.8 | 69.2 | > 100 | 88.9 |  |  |  |  |  | Cc1cccnc1-n1c([S+]([O-])Cc2ccccc2N)nc2c1CCC2 (configuration not stated) |
| 36.1 | 100 |  |  |  | 45.4 |  |  |  | 51.7 | 34.1 | 27.8 | 71.1 | 37.1 | COc1ccc2[nH]c([S+]([O-])Cc3ncc(C)c(OC)c3C)nc2c1 (configuration not stated) |
